Experimental data: patent EP0324328B1, “Use of the N-n-butyl derivative of desoxynojirimycin in the manufacture of a medicament inhibiting HIV-Virus” (priority 1987, dated 1989)

Assays:
HIV = assay: Inhibition of HIV-associated cytopathic effect (CPE) in T-45 cells; type: cell-based; conditions: HIV infected T-45 cells, various concentrations (Fig. 3); result in words
Method: FIG. 3 is a graphical representation in which the inhibition of HIV associated CPE (―% CPE) reduction) and test compound-associated cytotoxicity (---% cell death) is plotted against the media concentration in mg/ml of several test compounds (drugs). The cell viability data was determined for non-HIV infected cells. The test compounds were the N-methyl-, N-ethyl-, and N-butyl derivatives of deoxynojirimycin (DNJ), castanospermine (Cast), N-(5-carboxymethyl-1-pentyl)-1,5-imino-L-fucitol (LFT) and 1,4-dideoxy-1,4-imino-L-arabinitol (LAB).
After a suitable period of incubation, the cultures are scored for the presence of so-called syncytial cells (giant cells). Typical examples of such a test for the evaluation of inhibitors of HIV have been disclosed by Fung et al., Bio/Technology 5, 940-946 (1987); Tyms et al., Lancet, October 31, 1987, pp. 1025-1026; Gruters et al., Nature 330, 74-77 (1987); and Walker et al., Proc. Natl. Acad. Sci. USA 84, 8120-8124 (1987).
The efficacy of the test compounds used in this example was assessed as follows: 0.2 ml of culture medium containing 10^4 T-45 cells were transferred into each well of a 96-well flat-bottomed tissue-culture plastic plate and the cells were allowed to settle at 37°C (see Figure 1). After 4 hours the media were aspirated and replaced with media which contained the test compound. Following overnight incubation the media was aspirated and 10^4 TCID of virus (HIV-1 or HIV-2) was added to each well. Incubation was continued at 37°C in 5% CO2 for 1 hour. Thereafter, growth media containing the various compounds were added and incubation at 37°C was continued. On the fourth day the cell suspensions from each well were split and seeded into two new wells and 0.2 ml of fresh media with compounds was added. This was repeated on the seventh day. Cells were examined by microscopy during days 1 to 10 for the presence of syncytia, growth rate and the appearance of the cytopathic effect (CPE) (giant cells, pycnotic nuclei, loss of refractility). CPE (100%) was defined as no round, refractile, uniform cells remaining; only giant, ballooned pyknotic cells were present. The viability of HIV infected cultures was determined by a rough count/estimate of cells which underwent CPE in relation to round refractile uniform (normal) cells in a given culture. Cells in wells which were incubated with compounds which appeared to inhibit or reduce HIV replication and in which there was marked cell proliferation were either transferred to larger wells (of a 24-well plate) or divided in order to maintain an approximate constant cell density to promote continuous cell division.

HIV-1 = assay: Time to develop CPE after transfer of HIV-1 infected cells to drug-free medium; type: cell-based
Method: FIG. 2 is a schematic outline of the test procedure used to determine the relative proportion of HIV-infected cells in cultures containing 0.1 mg/ml of the inhibitory test compound. At various times aliquots of the infected cell suspensions were transferred to inhibitor-free medium and the time taken for the cells to develop cytopathic effect (CPE) was recorded.
After 55 days of culture (O) in the presence of drug no virus appeared during 100 additional days of culture in the absence of drug (after removal of drug).
To determine if there was a gradual reduction of HIV-infected cells in cultures maintained with BuDNJ, aliquots of cells infected with 10^4 TCID of HIV-1 and grown in the presence of 0.1 mg/ml BuDNJ for varying lengths of time were transferred to separate wells and grown in drug-free medium as indicated in […]. The cultures were then monitored for development of CPE, indicative of active HIV replication. The times for the appearance of an advanced CPE were recorded. […]
In order to determine whether or not there was an actual reduction in HIV-infected cells in the presence of BuDNJ, aliquots of the infected cell suspension, grown for varying times in the presence or drug, where transferred to drug-free medium as outlined in Figure 2. The cultures were then monitored for the development of CPE and giant cell formation (indicative of active HIV replication). […]

SMILES	effect on CPE formation (HIV)	days before CPE expression (HIV-1; 0.1 mg/ml drug for 55 days of culture, then culture in the absence of drug)	proportion of infected cells in the cultures (HIV-1; prolonged exposure, 0.1 mg/ml, result in words)
CCCCN1C[C@H](O)[C@@H](O)[C@H](O)[C@H]1CO [BuDNJ, N-n-butyl-deoxynojirimycin]	completely prevented CPE in the HIV infected cells at all concentrations tested	> 100 days	reduced the proportion of infected cells in the cultures
CN1C[C@H](O)[C@@H](O)[C@H](O)[C@H]1CO [MeDNJ, N-methyl-deoxynojirimycin]	bell shaped dose-dependence		
